# Experimental data from ChEMBL document CHEMBL1148709, “Derivatives of (-)-7-methyl-2-(5-(pyridinyl)pyridin-3-yl)-7-azabicyclo[2.2.1]heptane are potential ligands for positron emission tomography imaging of extrathalamic nicotinic acetylcholine receptors” (J Med Chem, 2007).
# Activity calls are given as the source filed them. No cut-off for these calls is given here.
# Key:
# [1] = Ratio of drug level in thalamus to cerebellum in baboon after 180 mins; assay type: ADME, tissue-based; settings: papio hamadryas, in vivo, 3 h
# [2] = Ratio of drug level in frontal cortex to cerebellum in baboon after 180 mins; assay type: ADME, tissue-based; settings: papio hamadryas, in vivo, 3 h
# [3] = Ratio of drug level in pans to cerebellum in baboon after 180 mins; assay type: ADME, tissue-based; settings: papio hamadryas, in vivo, 3 h
# [4] = Ratio of drug level in thalamus to cerebellum in Wistar rat after 90 mins; assay type: ADME, tissue-based; settings: in vivo, 1.5 h
# physchem = settings: octanol/water, pH 7.4
# Description: Distribution coefficient, log D at pH 7.4 by shake-flask method
# Mus musculus [5] = test: Toxicity assessed as induction of death in CD1 mouse at 2 umol/kg; assay type: organism-based; settings: in vivo
# Mus musculus [6] = test: Induction of straub tail in CD1 mouse at 2 umol/kg; assay type: functional, organism-based
# Mus musculus [7] = test: Induction of fast breathing in CD1 mouse at 2 umol/kg; assay type: functional, organism-based
smiles,measurement,setting,value
CN1[C@@H]2CC[C@@H]1[C@@H](c1cncc(-c3ccc([18F])nc3)c1)C2,Ratio,[1],6
same,Ratio,[2],2.4
same,Ratio,[3],2.4
[11CH3]N1[C@@H]2CC[C@@H]1[C@@H](c1cnc(Cl)c(-c3ccnc(F)c3)c1)C2,Ratio,[4],6.5
Fc1ccc(-c2cc([C@H]3C[C@H]4CC[C@H]3N4)cnc2Cl)cn1 (racemic),logD,physchem,0.68
CN1[C@@H]2CC[C@@H]1[C@@H](c1cnc(F)c(-c3ccc(F)nc3)c1)C2 (racemic),logD,physchem,0.96
CN1[C@@H]2CC[C@@H]1[C@@H](c1cncc(-c3ccc(F)nc3)c1)C2 (racemic),logD,physchem,0.45
CN1[C@@H]2CC[C@@H]1[C@@H](c1cnc(F)c(-c3ccc(C#N)nc3)c1)C2 (racemic),logD,physchem,0.64
CN1[C@@H]2CC[C@@H]1[C@@H](c1cnc(Cl)c(-c3ccnc(F)c3)c1)C2 (racemic),logD,physchem,1.26
[11CH3]N1[C@@H]2CC[C@@H]1[C@@H](c1cnc(Cl)c(-c3ccnc(F)c3)c1)C2 (racemic),Ratio,[4],2.2
"CN1[C@@H]2CC[C@@H]1[C@@H](c1cnc(Cl)c(-c3ccc(F)nc3)c1)C2 (single isomer, unassigned)",logD,physchem,1.42
CN1[C@@H]2CC[C@@H]1[C@@H](c1cncc(-c3ccc(F)nc3)c1)C2 (stereo in doubt; (-)-24d) [listing 1 of 2 here],Activity,Mus musculus [5],Non-toxic
CN1[C@@H]2CC[C@@H]1[C@@H](c1cncc(-c3ccc(F)nc3)c1)C2 (stereo in doubt; (-)-24d) [listing 2 of 2 here],Activity,Mus musculus [6],Active
same,Activity,Mus musculus [7],Active
